What was measured:
Details in all cases: treatment time: 5 days
[1] = test system: MIAPACA2; test: relative viability (fraction of vehicle control); higher = more viable / less inhibited
Experimental: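 CCK-8 viability of MIAPACA2 cells with empty vector or constitutively active YAP S127A, treated with KRAS G12C inhibitors for 5 days, normalised to vehicle control.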

[2] = test system: SW1573
Experimental: (§1)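 CCK-8 viability of KRAS G12C-mutant cancer cell lines transfected with control, YAP/TAZ or TEAD1-4 siRNAs and treated with KRAS G12C inhibitors for 5 days; IC50 fitted in Prism after normalising absorbance at 450 nm to vehicle control.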

[3] = test system: KYSE410
Experimental: as §1

[4] = test system: MIAPACA2
Experimental: as §1

[5] = test system: H358
Experimental: as §1

[6] = test system: H1792
Experimental: as §1

[7] = test system: H1373
Experimental: as §1

[8] = test system: H2030
Experimental: as §1

[9] = test system: H2030; test: relative viability (fraction of vehicle control); higher = more viable / less inhibited
Experimental: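 CCK-8 viability of H2030 cells transfected with control, YAP/TAZ or TEAD1-4 siRNAs and treated with KRAS G12C inhibitors for 5 days. Values are normalised to vehicle control.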

[10] = test system: H358; test: as above
Experimental: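 CCK-8 viability of H358 cells with empty vector or constitutively active YAP S127A, treated with KRAS G12C inhibitors for 5 days. Absorbance at 450 nm normalised to vehicle control.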

C=CC(=O)N1CCN(c2ncnc3c(F)c(-c4c(O)cccc4F)c(Cl)cc23)CC1 [ARS1620]
Details | IC50 (cell viability, 5 days) [nM] | relative viability
[1], log10 concentration (uM): 0, ectopic expression: YAP S127A | – | 1.05
[1], log10 concentration (uM): 0, ectopic expression: empty vector (YAP experiment) | – | 1.01
[1], log10 concentration (uM): 0.39794, ectopic expression: YAP S127A | – | 0.984
[1], log10 concentration (uM): 0.39794, ectopic expression: empty vector (YAP experiment) | – | 0.743
[1], log10 concentration (uM): 0.69897, ectopic expression: YAP S127A | – | 0.977
[1], log10 concentration (uM): 0.69897, ectopic expression: empty vector (YAP experiment) | – | 0.542
[1], log10 concentration (uM): 1, ectopic expression: YAP S127A | – | 0.913
[1], log10 concentration (uM): 1, ectopic expression: empty vector (YAP experiment) | – | 0.25
[1], log10 concentration (uM): 1.301029996, ectopic expression: YAP S127A | – | 0.315
[1], log10 concentration (uM): 1.301029996, ectopic expression: empty vector (YAP experiment) | – | 0.0583
[1], log10 concentration (uM): -0.30103, ectopic expression: YAP S127A | – | 0.946
[1], log10 concentration (uM): -0.30103, ectopic expression: empty vector (YAP experiment) | – | 0.996
[1], log10 concentration (uM): -0.60206, ectopic expression: YAP S127A | – | 0.915
[1], log10 concentration (uM): -0.60206, ectopic expression: empty vector (YAP experiment) | – | 0.98
[1], log10 concentration (uM): -1, ectopic expression: YAP S127A | – | 0.969
[1], log10 concentration (uM): -1, ectopic expression: empty vector (YAP experiment) | – | 1.05
[1], log10 concentration (uM): -2, ectopic expression: YAP S127A | – | 0.992
[1], log10 concentration (uM): -2, ectopic expression: empty vector (YAP experiment) | – | 0.994
[2], siRNA knockdown (Con = control): Con | 13200 | –
[2], siRNA knockdown (Con = control): TEAD1234_si1 | 342 | –
[2], siRNA knockdown (Con = control): TEAD1234_si2 | 164 | –
[2], siRNA knockdown (Con = control): YAP_WWTR1_si1 | 100 | –
[2], siRNA knockdown (Con = control): YAP_WWTR1_si2 | 132 | –
[3], siRNA knockdown (Con = control): Con | 4240 | –
[3], siRNA knockdown (Con = control): TEAD1234_si1 | 1050 | –
[3], siRNA knockdown (Con = control): TEAD1234_si2 | 1070 | –
[3], siRNA knockdown (Con = control): YAP_WWTR1_si1 | 1680 | –
[3], siRNA knockdown (Con = control): YAP_WWTR1_si2 | 1190 | –
[4], siRNA knockdown (Con = control): Con | 10400 | –
[4], siRNA knockdown (Con = control): TEAD1234_si1 | 5670 | –
[4], siRNA knockdown (Con = control): TEAD1234_si2 | 5420 | –
[4], siRNA knockdown (Con = control): YAP_WWTR1_si1 | 4420 | –
[4], siRNA knockdown (Con = control): YAP_WWTR1_si2 | 6970 | –
[5], siRNA knockdown (Con = control): Con | 400 | –
[5], siRNA knockdown (Con = control): TEAD1234_si1 | 366 | –
[5], siRNA knockdown (Con = control): TEAD1234_si2 | 228 | –
[5], siRNA knockdown (Con = control): YAP_WWTR1_si1 | 183 | –
[5], siRNA knockdown (Con = control): YAP_WWTR1_si2 | 135 | –
[6], siRNA knockdown (Con = control): Con | 1960 | –
[6], siRNA knockdown (Con = control): YAP_WWTR1_si1 | 590 | –
[6], siRNA knockdown (Con = control): YAP_WWTR1_si2 | 472 | –
[7], siRNA knockdown (Con = control): Con | 1950 | –
[7], siRNA knockdown (Con = control): YAP_WWTR1_si1 | 580 | –
[7], siRNA knockdown (Con = control): YAP_WWTR1_si2 | 305 | –
[8], siRNA knockdown (Con = control): Con | 9870 | –
[8], siRNA knockdown (Con = control): TEAD1234_si1 | 1050 | –
[8], siRNA knockdown (Con = control): TEAD1234_si2 | 237 | –
[9], log10 concentration (uM): 0, siRNA knockdown: TEAD1-4 siRNA 1 | – | 0.502
[9], log10 concentration (uM): 0, siRNA knockdown: TEAD1-4 siRNA 2 | – | 0.522
[9], log10 concentration (uM): 0, siRNA knockdown: YAP/TAZ siRNA 1 | – | 0.521
[9], log10 concentration (uM): 0, siRNA knockdown: YAP/TAZ siRNA 2 | – | 0.482
[9], log10 concentration (uM): 0, siRNA knockdown: negative control siRNA | – | 0.948
[9], log10 concentration (uM): 0.39794, siRNA knockdown: TEAD1-4 siRNA 1 | – | 0.429
[9], log10 concentration (uM): 0.39794, siRNA knockdown: TEAD1-4 siRNA 2 | – | 0.365
[9], log10 concentration (uM): 0.39794, siRNA knockdown: YAP/TAZ siRNA 1 | – | 0.499
[9], log10 concentration (uM): 0.39794, siRNA knockdown: YAP/TAZ siRNA 2 | – | 0.448
[9], log10 concentration (uM): 0.39794, siRNA knockdown: negative control siRNA | – | 0.927
[9], log10 concentration (uM): 0.69897, siRNA knockdown: TEAD1-4 siRNA 1 | – | 0.257
[9], log10 concentration (uM): 0.69897, siRNA knockdown: TEAD1-4 siRNA 2 | – | 0.256
[9], log10 concentration (uM): 0.69897, siRNA knockdown: YAP/TAZ siRNA 1 | – | 0.369
[9], log10 concentration (uM): 0.69897, siRNA knockdown: YAP/TAZ siRNA 2 | – | 0.386
[9], log10 concentration (uM): 0.69897, siRNA knockdown: negative control siRNA | – | 0.874
[9], log10 concentration (uM): 1, siRNA knockdown: TEAD1-4 siRNA 1 | – | 0.151
[9], log10 concentration (uM): 1, siRNA knockdown: TEAD1-4 siRNA 2 | – | 0.168
[9], log10 concentration (uM): 1, siRNA knockdown: YAP/TAZ siRNA 1 | – | 0.216
[9], log10 concentration (uM): 1, siRNA knockdown: YAP/TAZ siRNA 2 | – | 0.261
[9], log10 concentration (uM): 1, siRNA knockdown: negative control siRNA | – | 0.742
[9], log10 concentration (uM): 1.301029996, siRNA knockdown: TEAD1-4 siRNA 1 | – | 0.0456
[9], log10 concentration (uM): 1.301029996, siRNA knockdown: TEAD1-4 siRNA 2 | – | 0.0819
[9], log10 concentration (uM): 1.301029996, siRNA knockdown: YAP/TAZ siRNA 1 | – | 0.114
[9], log10 concentration (uM): 1.301029996, siRNA knockdown: YAP/TAZ siRNA 2 | – | 0.14
[9], log10 concentration (uM): 1.301029996, siRNA knockdown: negative control siRNA | – | 0.217
[9], log10 concentration (uM): -0.30103, siRNA knockdown: TEAD1-4 siRNA 1 | – | 0.562
[9], log10 concentration (uM): -0.30103, siRNA knockdown: TEAD1-4 siRNA 2 | – | 0.478
[9], log10 concentration (uM): -0.30103, siRNA knockdown: YAP/TAZ siRNA 1 | – | 0.627
[9], log10 concentration (uM): -0.30103, siRNA knockdown: YAP/TAZ siRNA 2 | – | 0.641
[9], log10 concentration (uM): -0.30103, siRNA knockdown: negative control siRNA | – | 0.985
[9], log10 concentration (uM): -0.60206, siRNA knockdown: TEAD1-4 siRNA 1 | – | 0.646
[9], log10 concentration (uM): -0.60206, siRNA knockdown: TEAD1-4 siRNA 2 | – | 0.616
[9], log10 concentration (uM): -0.60206, siRNA knockdown: YAP/TAZ siRNA 1 | – | 0.695
[9], log10 concentration (uM): -0.60206, siRNA knockdown: YAP/TAZ siRNA 2 | – | 0.731
[9], log10 concentration (uM): -0.60206, siRNA knockdown: negative control siRNA | – | 0.992
[9], log10 concentration (uM): -1, siRNA knockdown: TEAD1-4 siRNA 1 | – | 0.742
[9], log10 concentration (uM): -1, siRNA knockdown: TEAD1-4 siRNA 2 | – | 0.639
[9], log10 concentration (uM): -1, siRNA knockdown: YAP/TAZ siRNA 1 | – | 0.753
[9], log10 concentration (uM): -1, siRNA knockdown: YAP/TAZ siRNA 2 | – | 0.78
[9], log10 concentration (uM): -1, siRNA knockdown: negative control siRNA | – | 0.997
[9], log10 concentration (uM): -2, siRNA knockdown: TEAD1-4 siRNA 1 | – | 0.922
[9], log10 concentration (uM): -2, siRNA knockdown: TEAD1-4 siRNA 2 | – | 1.12
[9], log10 concentration (uM): -2, siRNA knockdown: YAP/TAZ siRNA 1 | – | 0.976
[9], log10 concentration (uM): -2, siRNA knockdown: YAP/TAZ siRNA 2 | – | 0.922
[9], log10 concentration (uM): -2, siRNA knockdown: negative control siRNA | – | 1.02
[10], log10 concentration (uM): 0, ectopic expression: YAP S127A | – | 0.842
[10], log10 concentration (uM): 0, ectopic expression: empty vector (YAP experiment) | – | 0.6
[10], log10 concentration (uM): 0.39794, ectopic expression: YAP S127A | – | 0.833
[10], log10 concentration (uM): 0.39794, ectopic expression: empty vector (YAP experiment) | – | 0.389
[10], log10 concentration (uM): 0.69897, ectopic expression: YAP S127A | – | 0.617
[10], log10 concentration (uM): 0.69897, ectopic expression: empty vector (YAP experiment) | – | 0.306
[10], log10 concentration (uM): 1, ectopic expression: YAP S127A | – | 0.558
[10], log10 concentration (uM): 1, ectopic expression: empty vector (YAP experiment) | – | 0.217
[10], log10 concentration (uM): 1.301029996, ectopic expression: YAP S127A | – | 0.383
[10], log10 concentration (uM): 1.301029996, ectopic expression: empty vector (YAP experiment) | – | 0.128
[10], log10 concentration (uM): -0.30103, ectopic expression: YAP S127A | – | 0.942
[10], log10 concentration (uM): -0.30103, ectopic expression: empty vector (YAP experiment) | – | 0.711
[10], log10 concentration (uM): -0.60206, ectopic expression: YAP S127A | – | 0.958
[10], log10 concentration (uM): -0.60206, ectopic expression: empty vector (YAP experiment) | – | 0.806
[10], log10 concentration (uM): -1, ectopic expression: YAP S127A | – | 0.808
[10], log10 concentration (uM): -1, ectopic expression: empty vector (YAP experiment) | – | 0.883
[10], log10 concentration (uM): -2, ectopic expression: YAP S127A | – | 0.792
[10], log10 concentration (uM): -2, ectopic expression: empty vector (YAP experiment) | – | 0.75
